According to patent US20170232083A1, “METHODS OF DIAGNOSIS AND TREATMENT OF CELIAC DISEASE IN CHILDREN” (priority 2014, published 2017):

Columns and labels:
[1] = tested on: PBMC from newly diagnosed / untreated CD children; settings: Liu et al.; cited from earlier work
[2] = tested on: PBMC (polyclonal gluten-specific T cells) of paediatric and adult CD patients; test: IFN-γ ELISpot of PBMC after 3 day oral wheat challenge (SFU, % of maximal peptide response, dominance scores, EC50; Examples 5-6); type: cell-based, human; settings: for Dominance score 3-5yrs (n = 9): CD children 3-5yrs, n = 9, following wheat challenge; for Dominance score 3-5yrs (n = 9) / Dominance score 6-10yrs (n = 10) / Dominance score 11-18yrs (n = 11): mean percentage of maximal peptide response; for Dominance score 6-10yrs (n = 10): CD children 6-10yrs, n = 10, following wheat challenge; for Dominance score 11-18yrs (n = 11): CD children 11-18yrs, n = 11, following wheat challenge; for Dominance score Mean all ages: CD children, following wheat challenge (Table 9); for Dominance scores 3-5 yrs: children with celiac disease 3-5 yrs after wheat challenge (Table 14); for Dominance scores 6-10 yrs: children with celiac disease 6-10 yrs after wheat challenge (Table 14); for Dominance scores 11-18 yrs: children with celiac disease 11-18 yrs after wheat challenge (Table 14); for Dominance scores Mean all ages: mean of all subjects (Table 14)
[3] = tested on: PBMC (polyclonal gluten-specific T cells) of paediatric and adult CD patients; settings: corresponding adult data shown for comparison (14); cited from earlier work

Substance | individual CD children with responses [1] | Dominance score 3-5yrs (n = 9) [2] | Dominance score 6-10yrs (n = 10) [2] | Dominance score 11-18yrs (n = 11) [2] | Dominance score Mean all ages [2] | Dominance scores 3-5 yrs [2] | Dominance scores 6-10 yrs [2] | Dominance scores 11-18 yrs [2] | Dominance scores Mean all ages [2] | Dominance scores 18+ yrs [3]
PFPQPELPY [DQ2.5-glia-α1a] | 3/10 | – | – | – | – | – | – | – | – | –
PQPELPYPQ [DQ2.5-glia-α2] | 0/10 | – | – | – | – | – | – | – | – | –
W26 (PFPLQPEQPFPQP) [Peptide W26] | – | 39.4 | 61.6 | 35.0 | 45.8 | 46 | 62 | 35 | 47 | 0
W32 (PFPEQPEQPFPQP) [Peptide W32] | – | 26.9 | 34.4 | 28.2 | 30.2 | 26 | 34 | 28 | 30 | 0
